Measured values published in patent US7053121B2, “Compositions and methods for regulating circadian rhythms” (priority 2001, dated 2006).

Legend:
[1] = tested on: Gal4DBD fusions of CLOCK and MOP4 with VP16 fusions of nuclear receptors; assay: Mammalian two-hybrid analysis in CV-1 cells; assay type: cell-based, human; details: ligand 1 μM, FIG. 1B
Experimental: NIH 3T3 cells were seeded at 20,000 cells/well in a 48-well dish and transfected by FuGENE™ liposome-mediated transfer (Roche Molecular Biochemicals, Indianapolis, Ind.) with internal control pRLSV40 (5 ng), pGL3M34 reporter, CMX-MOP4 (100 ng) or CMX-CLOCK (100 ng) and CMX-BMAL1 (100 ng) in the presence or absence of CMX-RXRα or CMX-RARα (25–100 ng). CMX-MOP4ΔAAA (100 ng), pCDNA3.1MOP4Δ727 (100 ng), pCDNA3.1MOP4Δ624 (100 ng), and CMX-MOP4Δ635–645 (100 ng) were used instead of CMXMOP4 where indicated. The amount of DNA in each transfection was kept constant by addition of empty pCDNA3 vector. […] Forty-eight hours post-transfection, cells were harvested to determine luciferase activity by luminometry (Dual-Luciferase® Reporter Assay System, Promega Corporation, Madison, Wis.). The procedure for mammalian two-hybrid analysis was identical except that CV-1 cells were used. MH100TK-LUC (100 ng) reporter, CMX-Gal4DBD-MOP4 (20 ng), CMX-Gal4DBD-CLOCK (20 ng) in the presence of, CMX-VP16-PPARγ (20 ng), CMX-VP16-RARα (20 ng), CMX-VP16-TRβ (20 ng), CMX-RXRα (20 ng) or CMX-VP16-PPARα (20 ng). […] For all the figures, each value is the mean of three independent experiments +/− standard error. Each experiment included six replicates from a single assay.

[2] = tested on: interaction between MOP4 and CLOCK with RXRα and RARα; details: YRG2 cells, ligand 1 μM, FIG. 1A
Experimental: A liquid β-galactosidase activity assay was utilized to assess the effect of ligands on these novel interactions.
The library was prepared by ligating XhoI/EcoRI-adapted, phosphorylated, oligo-dT-primed cDNA, prepared from polyadenylated RNA extracted from 1×10^8 human aortic vascular smooth muscle cells (Cambrex Corporation, East Rutherford, N.J.), into the HybriZAP® II vector and packaged with Gigapack® III Gold packaging extract (Stratagene, La Jolla, Calif.) into a primary lambda library. […] RXRα-interacting clones were selected on media lacking tryptophan, leucine, and histidine, supplemented with 10 mM 3-amino-triazol.

CLOCK and RARα = molecular target: T1, CLOCK and RARα (Homo sapiens, UniProt P10276); assay: In vitro immunoprecipitation of CLOCK and RARα; assay type: binding; details: in vitro translated proteins, incubation in presence of retinoic acid
T1 construct: made in house; host or cells: coupled in vitro transcription-translation (labelled protein); E. coli BL21(DE3) (purified protein, inferred)
T1 sequence (P10276 1-462): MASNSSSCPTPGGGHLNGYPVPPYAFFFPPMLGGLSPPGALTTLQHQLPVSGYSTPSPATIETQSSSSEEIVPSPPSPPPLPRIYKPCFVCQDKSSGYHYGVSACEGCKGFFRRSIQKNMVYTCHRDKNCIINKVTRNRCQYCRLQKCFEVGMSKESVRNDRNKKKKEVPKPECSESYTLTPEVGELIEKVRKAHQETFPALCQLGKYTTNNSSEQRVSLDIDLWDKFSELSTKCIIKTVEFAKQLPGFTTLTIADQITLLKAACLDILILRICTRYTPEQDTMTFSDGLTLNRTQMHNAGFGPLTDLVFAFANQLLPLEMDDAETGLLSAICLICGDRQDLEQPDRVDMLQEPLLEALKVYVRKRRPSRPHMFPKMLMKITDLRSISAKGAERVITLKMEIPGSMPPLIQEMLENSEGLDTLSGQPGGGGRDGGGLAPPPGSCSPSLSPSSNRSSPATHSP
T1 sequence (O15516 1-846 partner): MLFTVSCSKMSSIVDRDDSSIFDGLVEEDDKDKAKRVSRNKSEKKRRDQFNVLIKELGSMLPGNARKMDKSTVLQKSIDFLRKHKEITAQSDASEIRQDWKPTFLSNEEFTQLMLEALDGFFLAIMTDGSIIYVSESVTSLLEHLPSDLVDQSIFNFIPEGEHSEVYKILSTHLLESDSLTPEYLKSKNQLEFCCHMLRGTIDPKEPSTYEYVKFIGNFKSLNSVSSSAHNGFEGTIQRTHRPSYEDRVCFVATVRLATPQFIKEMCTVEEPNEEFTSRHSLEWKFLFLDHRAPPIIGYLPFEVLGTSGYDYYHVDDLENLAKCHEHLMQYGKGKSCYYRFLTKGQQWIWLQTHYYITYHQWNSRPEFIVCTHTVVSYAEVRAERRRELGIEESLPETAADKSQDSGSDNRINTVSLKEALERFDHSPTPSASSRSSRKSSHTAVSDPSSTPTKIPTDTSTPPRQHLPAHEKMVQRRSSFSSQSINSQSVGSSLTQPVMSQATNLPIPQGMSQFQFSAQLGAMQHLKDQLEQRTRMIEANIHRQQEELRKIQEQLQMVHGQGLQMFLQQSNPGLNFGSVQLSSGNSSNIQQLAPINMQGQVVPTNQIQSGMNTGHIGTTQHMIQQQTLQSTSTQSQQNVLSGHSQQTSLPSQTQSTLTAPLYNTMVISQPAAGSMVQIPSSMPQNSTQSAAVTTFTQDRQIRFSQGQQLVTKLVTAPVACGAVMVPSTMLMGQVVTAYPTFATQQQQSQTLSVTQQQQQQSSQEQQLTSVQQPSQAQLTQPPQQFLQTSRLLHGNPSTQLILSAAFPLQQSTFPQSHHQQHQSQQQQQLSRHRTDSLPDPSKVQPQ
Experimental: [^35S]Methionine-labeled RARα and CLOCK were incubated with purified CLOCK and RARα protein, respectively for 30 min. at room temperature in the presence or absence of tRA. The complex was immunoprecipitated using anti-CLOCK and anti-RAR antibodies (Santa Cruz Biotechnology, Inc., Santa Cruz, Calif.) and protein A-agarose (Gibco, Carlsbad, Calif.) was added. Beads were washed extensively and bound proteins separated by SDS-PAGE and analyzed by a PhosphorImager.

[3] = tested on: hPER2 transcript oscillation in VSMC; assay: Serum shock and ribonuclease protection analysis of hPER2 mRNA in VSMC; assay type: cell-based, human
Experimental: In these experiments, it was determined that oscillating clock gene expression could be induced by serum shock in VSMC as had been reported in Rat and 3T3 fibroblasts (Balsalobre, et al. (1998) Cell 93:929–937; Akashi, et al. (2000) Genes Dev. 14:645–649). Following addition of 50% serum for two hours, hPER2 mRNA peaks very rapidly at T4 (fours hours after serum shock) and enters a cyclical expression pattern, peaking at T24 and T48 (FIG. 5A). Adding tRA at T17 and leaving it in the culture for the remainder of the experiment, delayed the peak of hPER2 mRNA from T24 to T28. […] When tRA was added at T17 and removed at T19, the first hPER2 peak was again delayed to T28. However, the drop in hPER2 levels was followed by an increase, resulting in a second cycle which peaked at T52 (FIG. 5C). Thus, tRA phase delayed the hPER oscillation by four hours, which is consistent with the observation that ligand-bound RARα prevents CLOCK:BMAL1 heterodimer from activating transcription through its E-box. Removal of the ligand restored the ability of the CLOCK:BMAL1 heterodimer to induce hPER2 expression, but the phase of the cycle was delayed.
The coincidental circadian variability of catecholamines and blood pressure (Hossmann, et al. (1980) Cardiovasc. Res. 14:125–129) led to the investigation of whether catecholamines can phase-shift a core clock oscillator in VSMC. Norepinephrine and epinephrine (10 μM), were added at T16 and left in the culture until T18. This phase advanced the hPER2 mRNA peak to T20 instead of T24 (FIG. 5D).
VSMC (3500 cells/cm^2) were plated on 10 cm^2 plates 6 days before the experiment and were serum-starved for 48 hours after reaching confluence. Serum shock was carried out using 50% fetal bovine serum (Gibco, Carlsbad, Calif.) as previously described (Balsalobre, et al. (1998) Cell 93:929–937) and cells were harvested at the indicated time points and stored at −80° C. Total RNA was extracted from each sample using the RNAwiz™ reagent (Ambion, Austin, Tex.). […] RNA (5 μg) from each time point was hybridized for 16 hour with 8×10^4 cpm of the probe at 42° C. and digested with RNaseA/T1 (SequaGel System, National Diagnostics, Atlanta, Ga.), dried and analyzed by a PhosphorImager. The data was quantitated using ImageQuant version 1.2 software (Amersham Pharmacia Molecular Dynamics, Piscataway, N.J.) All results represent a mean of at least two independent experiments and are expressed as the ratio of the MOP4 or PER2 signal divided by the Actin signal at the same time point.

| SMILES | interaction of MOP4 and CLOCK with RXRα and RARα [1] | strength of the interaction between MOP4 and CLOCK with RARα [2] | association of CLOCK and RARα (coimmunoprecipitation) (CLOCK and RARα) | hPER2 transcript oscillation ([3]; addition at T17, FIG. 5B) | hPER2 transcript oscillation ([3]; addition at T17 and removal at T19, FIG. 5C) | phase delay of the hPER oscillation ([3]; tRA added at T17) | subsequent hPER2 levels ([3]; tRA added at T17 and left in culture, FIG. 5B) |
| --- | --- | --- | --- | --- | --- | --- | --- |
| CC1=C(/C=C/C(C)=C\C=C\C(C)=C\C(=O)O)C(C)(C)CCC1 [9cisRA, 9-cis-retinoic acid] | ligand-dependent manner |  |  |  |  |  |  |
| CC1=C(/C=C/C(C)=C/C=C/C(C)=C/C(=O)O)C(C)(C)CCC1 [tRA, all-trans retinoic acid] | ligand-dependent manner | increase the strength of the interaction | increase in association | delayed | altered | four | dropped and did not peak again |
